Read-outs that look alike come from different tables or passages of the source.
Experiments:
[1] = system: Salmonella Typhimurium TA 98 strain; experiment: Mutagenic activity (revertant colonies) of DNA intercalators treated with calcium hypochlorite; format: cell-based; details: for No. colonies of revertant organisms: drug 10 ng/ml
Protocol: Solutions of DNA intercalators (doxorubicin, daunorubicin and mitoxantrone)in concentrations of 10 ng/ml D5W were applied in 5 ml quantities to separate petri dishes. Two different concentrations of calcium hypochlorite, 40 g/l and 423 g/l, were applied in 1 ml. volumes separately to the anticancer drug solutions in each petri dish for a period of one minute. After thorough mixing and neutralization of the pH to 7.4 using HCl, 1 ml of each petri dish solution was applied to 35 mm petri dishes containing cultures of Salmonella Typhimurium TA 98 strain. The petri dishes containing bacteria plus overlaid mixtures of calcium hypochlorite/anticancer drug and control plates with bacteria alone were then incubated at 37° C. for 24 hours.

[2] = format: physicochemical; details: for Concentration by fluorescence (chromophore recovery): 10 ng on column
Protocol: Treatment of the drugs with calcium hypochlorite was carried out as described in Example 1. One ml aliquots of doxorubicin, daunorubicin and mitoxantrone, separately, were taken from the petri dishes after calcium hypochlorite exposure at two different concentrations for a period of one minute. Ten (10) ng of each of the anticancer drug (based on the final concentration resulting from the addition of calcium hypochlorite to the separate petri dishes containing each anticancer agent) was added to a high performance liquid chromatography column and standard HPLC assays were carried out. A reverse phase C-18 bonded phase HPLC procedure was used. The mobile phase consisted of 30:70 CH3 CN:ammonium acetate at a flow rate of 2 ml/min., using a Varian model 5020 HPLC unit. The anticancer drugs were detected using excitation at 480 nm and emission at 550 nm with a Schoeffel model FS 970 fluoroescence detector.

[3] = Deactivation and decolorization of anticancer drugs by hypochlorite; details: calcium or sodium hypochlorite
Description: In accordance with the invention, HIV infected blood, or any of a number of active anticancer drugs, can be inactivated by applying thereto an aqueous solution containing 4-40% by weight of calcium or sodium hypochlorite. HIV infected blood, as well as any anticancer agent which can undergo oxidative or alkaline degradation can be deactivated in accordance with the method of the invention. Among the anticancer agents which can be effectively deactivated are the following:
In addition to chemically deactivating the anti-cancer drugs, the method of the invention is also effective to decolorize those, e.g., the anthracyclines, doxorubicin and daunorubicin, which are naturally red in color, and the alkylating agent mitomycin C, which is naturally purple in color, which stain fabrics which they contact. The method of the invention renders the naturally colored anticancer drugs colorless, thus preventing permanent damage to clothes or other materials which come in contact with the drugs.
It has also been determined that HIV infected blood and most anticancer drugs can be deactivated by application of a solution of calcium or sodium hypochlorite in water at a concentration of 4% by weight.

[4] = system: HIV-infected CD4+ human cell line (H9/IIIB); experiment: HIV inactivation by dilute calcium hypochlorite; format: cell-based, HIV; human cells
Protocol: The ability of dilute calcium hypochlorite to inactivate HIV was tested against an HIV-infected CD4+ human cell line (H9/IIIB).
H9/IIIB cells (10^6 cells/ml of complete culture medium, RPMI in 10% fetal calf serum [FCS]) were exposed to an aqueous solution containing 4% by weight of calcium hypochlorite for 15 minutes; the volumetric ratio of culture medium to calcium hypochlorite solution was 1:1, or a 50% dilution of a 4% dilute calcium hypochlorite solution in culture medium containing 10% serum. The cells were subsequently washed three times with 10% FCS RPMI and plated in fresh medium and allowed to incubate at 37° C. for three days, to allow any residual live virus and/or virus-infected cells to develop after the brief exposure to the dilute calcium hypochlorite solution. The cells were again pelleted and exposed to lytic CD4+ human cell line (MOT) as a target for any viable virus. The target MOT cells will lyse when infected with HIV. These cells were then allowed to incubate an additional four days. Next, the cells were incubated with human anti-HIV antibody (prepared in accordance the procedures described in Lake DA, Sugano T, Matsumoto Y, et al: "A Hybridoma Producing Monoclonal Antibody Specific for Glycoprotein 120 kDa of Human Immunodeficiency Virus (HIV-1), Life Sciences 45:iii-x, 1989.) for one hour, and then washed and incubated with fluorescent labeled goat anti-human IgG for one hour. The method for HIV detection by formaldehyde fixation and flow cytometry was in accordance with the method described in Lifson JD, Sasaki DT, Engleman EG: "Utility of Formaldehyde Fixation for Flow Cytometry and Inactivation of the AIDS Associated Retrovirus", J Immunological Methods 86:143-149, 1986.
As a positive control, the above procedure was followed with HIV-infected H9/IIIB cells exposed only to culture medium rather than to culture medium and calcium hypochlorite. As a negative control, the above procedure was followed with uninfected H9 cells exposed to an aqueous solution containing 4% by weight of calcium hypochlorite.

[5] = system: HIV infected cells (H9/IIIB); experiment: Towlette swabs for work surfaces contaminated by HIV infected cells; set-up: species or system HIV; human cells; details: 5% impregnated towlette; stainless steel surface
Description: Test Swabs: 17×23 cm nylon-reinforced 4 ply, #34770, each weighing approximately 2.6 gram Terri® Wipers, manufactured by Kimberly Clark, Neenah, Wis.
Bleach: 4% by weight aqueous solution of calcium hypochlorite.
Sodium thiosulfate: 5% by weight aqueous solution, supplied by Tarijian Labs, Inc., Queens Village, N.Y.
HIV infected Cells: H9/IIIB cells (10^6 cells/ml of complete culture medium, RPI in 10% fetal calf serum [FCS]), as described above in Example 6.
A first fresh, dry test swab or towlette is impregnated with a 4.0% by weight aqueous solution of calcium hypochlorite by applying 5 (five) ml. of the calcium hypochlorite solution to the test swab. A second fresh, dry test swab or towlette is impregnated with a 5% by weight aqueous solution of sodium thiosulfate by applying 5 (five) ml. of the sodium thiosulfate solution to the test swab.
A small amount of the HIV infected cells are placed on a stainless steel work surface.
The sodium thiosulfate impregnated towlette is then wiped, or swabbed, over the work surface containing the inactivated virus.

[6] = Towlette swabs for work surfaces contaminated by doxorubicin; details: 5% impregnated towlette; stainless steel surface
Description: The Experimental Materials used are as described above in Example 8. A first fresh, dry test swab or towlette is impregnated with a 5.25% by weight aqueous solution of sodium hypochlorite by applying 5 (five) ml. of the sodium hypochlorite solution to the test swab. A second fresh, dry test swab or towlette is impregnated with a 5% by weight aqueous solution of sodium thiosulfate by applying 5 (five) ml. of the sodium thiosulfate solution to the test swab.
Doxorubicin is placed on a stainless steel work surface, which should cause a red stain to appear.
The sodium thiosulfate impregnated towlette is then wiped, or swabbed, over the work surface containing the chemically inactivated doxorubicin spill.

[7] = calcium hypochlorite 40 g/l, one minute
[8] = calcium hypochlorite 423 g/l, one minute
[9] = no calcium hypochlorite, 37° C., 24 hours
[10] = calcium hypochlorite 0 (control)
[11] = lower concentration of calcium hypochlorite (40 g/l), one minute

SMILES | No. colonies of revertant organisms [1, 7] [colonies] | No. colonies of revertant organisms [1, 8] [colonies] | No. colonies of revertant organisms [1, 9] [colonies] | Concentration by fluorescence (chromophore recovery) [2, 10] [ng] | Concentration by fluorescence (chromophore recovery) ([2]; calcium hypochlorite 40 g/l) [ng] | Concentration by fluorescence (chromophore recovery) ([2]; calcium hypochlorite 423 g/l) [ng] | chemical evidence of drug [2, 11] | further results
COc1cccc2c1C(=O)c1c(O)c3c(c(O)c1C2=O)C[C@@](O)(C(C)=O)C[C@@H]3O[C@H]1C[C@H](N)[C@H](O)[C@H](C)O1 [Daunorubicin] | 0 | 0 | 365 | 9.8 | 0 | 0 | no chemical evidence | 
COc1cccc2c1C(=O)c1c(O)c3c(c(O)c1C2=O)C[C@@](O)(C(=O)CO)C[C@@H]3O[C@H]1C[C@H](N)[C@H](O)[C@H](C)O1 [Doxorubicin] | 0 | 0 | 257 | 9.7 | 0 | 0 | no chemical evidence | 
O=C1c2c(O)ccc(O)c2C(=O)c2c(NCCNCCO)ccc(NCCNCCO)c21 [Mitoxantrone] | 44 | 0 | 164 | 10.1 | 3.8 | 0 |  | bacterial revertant growth ([1]; lower concentration of calcium hypochlorite (40 g/l)): associated with bacterial revertant growth; degradation ([2]; lower concentration of calcium hypochlorite (40 g/l), one minute, 1 min): approximately 60%; hypochlorite concentration that may be required for substantially complete deactivation [3]: up to 40 % by weight
[Ca+2].[O-]Cl.[O-]Cl [calcium hypochlorite] |  |  |  |  |  |  |  | HIV / infected cell inactivation ([4]; 4% by weight, 1:1 volumetric ratio, 15 minutes): completely inactivates; viable HIV present ([4]; after four day incubation): no viable HIV varions present; HIV antibody binding ([4]; antibody specific to the 120 kDa viral glycoprotein): no HIV antibody binding is detectable; signs of HIV infection under fluorescent microscope ([4]; fluorescent anti-HIV antibody): no signs of HIV infection; lysis of cells ([4]; non-infected and HIV infected cells, n=4 each): completely lysed; No. colonies of revertant organisms, control without drug ([1]; calcium hypochlorite 40 g/l): 0 colonies; No. colonies of revertant organisms, control without drug ([1]; calcium hypochlorite 423 g/l): 0 colonies
O=S([O-])([O-])=S.[Na+].[Na+] [sodium thiosulfate] |  |  |  |  |  |  |  | neutralization of residual calcium hypochlorite [5]: should neutralize any residual calcium hypochlorite; neutralization of residual sodium hypochlorite [6]: should neutralize any residual sodium hypochlorite

Reference: patent publication US5985302A, “Method for deactivating a contaminant” (priority 1998, dated 1999)
